Structures are written as SMILES.

A short description of data set [1]: Liver tissue distribution after single intragastric administration. Conditions: 10 mg/kg single intragastric, ICR mice; for AUC(0-t) at 24 h: mouse, in vivo, po, 10 mg/kg, area under curve at 24 h post-dose. How it is done:
The specific regimen was as follows: Before administration, the state of the formulation for administration was inspected, and the homogeneity of the formulation was ensured by vortexing, stirring, or shaking. The theoretical dose for each mouse was calculated according to the following formula. The actual dose for each ICR mouse and the collection time for plasma and tissue samples were required to be recorded in detail in corresponding tables. Theoretical administration volume (mL) = ((Dose(mg⋅kg^−1))/(Concentration of test solution (mg⋅((mL))^−1))) × Animal body weight (kg) [formula]
Plasma sample collection: At each designated time point, about 100 µL of blood was collected from the orbit, and the collected whole blood was placed in an EDTA-K2 anticoagulation tube, inverted several times to mix thoroughly, stored on wet ice, and centrifuged (at 1500 g to 1600 g) for 10 min within 30 min to separate the plasma. The resulting plasma sample was stored at -40 °C to -20 °C for biological sample analysis.
The specific procedures for liver tissue collection were as follows: Liver tissues were collected immediately after whole blood collection. The liver tissues were collected, washed with ice-cold normal saline, dehydrated, weighed, and homogenized in 20% methanol-water at a ratio of 1:5 (w/v). The collection time of tissues and the weight of homogenized tissues were required to be recorded in detail in corresponding tables.
The plasma and various tissue homogenates were stored in a refrigerator at -40 °C to -20 °C for sample analysis. After the experiment was completed, the mice were euthanized by carbon dioxide asphyxiation or cervical dislocation. After the analysis was completed, the samples were returned to the biological sample room, and transferred to an environment at -40 °C to -20 °C for storage according to SOP-SM-001.
The corresponding pharmacokinetic parameters of plasma and liver tissues were calculated using a non-compartmental model in Phoenix WinNonlin 8.0 or later versions, and the area under curve AUC0-t (AUC0-t, the area under the concentration-time curve at 24 h post-dose) was calculated. The liver/plasma drug distribution ratio (RL/P) was then calculated.

A further data set can be described thus: in vivo. How it is done:
C57BL/6 mice, 8 weeks old, female/male, 27, supplier: SPF (Beijing) Biotechnology Co., Ltd.
The body weight of the animals was measured and recorded daily.
All groups were subjected to clinical observations before administration and 1 to 2 h after administration, and additional observations were performed if necessary. Deaths and mortality were checked twice daily. The observations should include, but are not limited to, the following: fur condition, activity, mental status, vomiting, diarrhea, and abnormal secretions around the eyes. All animals should be observed on the day of necropsy, and any abnormal findings should be recorded.
The rectal temperature of all animals was measured and recorded at 0 h before administration and at 2 h, 4 h, 8 h and 24 h after administration.
The experiment was terminated on day 7 after administration. A gross necropsy was performed to examine abdominal and thoracic organs for lesions, and the spleen and liver were collected for weighing.

Where [2] appears, read: C57BL/6 mice, single intragastric administration.

By AUC(0-t) is commonly meant exposure summed from dosing to a finite time, without extrapolation to infinity. Higher therefore signals more exposure. With `COCCNc1nc(N)nc2ccc(Cc3ccc(CN4CCOCC4)cc3)nc12` [Compound II], in data set [1], the “AUC0-t ratio (liver/plasma)” value turned out to be 114 and the “liver/plasma drug distribution ratio” value worked out at 114 fold. For the same compound, in data set [1] (0.25h), the “Drug concentration ratio (liver/plasma)” value was 610, the “Mean drug concentration (liver)” value came to 30980 ng/g and the “Mean drug concentration (plasma)” value is 50.8 ng/mL. Also, in data set [1] (1 h), the “Drug concentration ratio (liver/plasma)” value is given as 134, the “Mean drug concentration (liver)” value is reported as 8780 ng/g and the “Mean drug concentration (plasma)” value turned out to be 65.6 ng/mL. Also, in data set [1] (4h), the “Drug concentration ratio (liver/plasma)” value is 71.3, the “Mean drug concentration (liver)” value is listed as 1990 ng/g and the “Mean drug concentration (plasma)” value stood at 27.9 ng/mL. In addition, in data set [1] (24h), the “Drug concentration ratio (liver/plasma)” value was found to be 79.4, the “Mean drug concentration (liver)” value came out at 327 ng/g and the “Mean drug concentration (plasma)” value was determined as 4.12 ng/mL. For the same compound, the AUC(0-t) at 24 h in data set [1] (AUC0-t (liver)) was determined as 58100 ng·h/mL. The exposure AUC(0-t) at 24 h in data set [1] (AUC0-t (plasma)) is 510 ng·h/mL. Also, the Cage-side observation result in the data set “in vivo” (20 mg/kg, group 6, male animal No. 35, day 2) was “white secretions around the eyes”. Moreover, the rectal temperature entry in the data set “in vivo” (2 h after treatment, significant difference vs vehicle group, returned to normal 4 h, 8 h and 24 h) is listed as “decreased”. For the same compound, in the data set “in vivo” (setting [2]), the “Adverse reactions at maximum tolerated dose/probability” value was “White secretion around the eyes (1/6)”, the “Weight loss at maximum tolerated dose: whether recovered” value was “Yes”, the “Weight loss rate at maximum tolerated dose” value is reported as 14% and the “With or without mouse death” value is reported as “No”. For the same compound, the body weight result in the data set “in vivo” (male and female animals, 10-40 mg/kg single administration, began to recover from day 3 to day 7) was “decreased after the single administration”. This compound registered an MTD at 168 h in the data set “in vivo” (mouse, in vivo, po) of 40 mg/kg.

These data come from patent EP4732839A1, “USE OF COMPOUND IN TREATMENT OF LIVER DISEASES” (priority 2023, dated 2025).
